Reference: ChEMBL document CHEMBL1154694, “Discovery of a 2,4-diamino-7-aminoalkoxyquinazoline as a potent and selective inhibitor of histone lysine methyltransferase G9a” (J Med Chem, 2009)

Columns and labels:
[1] = target: T1, Histone-lysine N-methyltransferase EHMT2 (Homo sapiens, UniProt Q96KQ7); experiment: Inhibition of G9a by Alpha screen assay
T1 sequence (Q96KQ7 whole entry): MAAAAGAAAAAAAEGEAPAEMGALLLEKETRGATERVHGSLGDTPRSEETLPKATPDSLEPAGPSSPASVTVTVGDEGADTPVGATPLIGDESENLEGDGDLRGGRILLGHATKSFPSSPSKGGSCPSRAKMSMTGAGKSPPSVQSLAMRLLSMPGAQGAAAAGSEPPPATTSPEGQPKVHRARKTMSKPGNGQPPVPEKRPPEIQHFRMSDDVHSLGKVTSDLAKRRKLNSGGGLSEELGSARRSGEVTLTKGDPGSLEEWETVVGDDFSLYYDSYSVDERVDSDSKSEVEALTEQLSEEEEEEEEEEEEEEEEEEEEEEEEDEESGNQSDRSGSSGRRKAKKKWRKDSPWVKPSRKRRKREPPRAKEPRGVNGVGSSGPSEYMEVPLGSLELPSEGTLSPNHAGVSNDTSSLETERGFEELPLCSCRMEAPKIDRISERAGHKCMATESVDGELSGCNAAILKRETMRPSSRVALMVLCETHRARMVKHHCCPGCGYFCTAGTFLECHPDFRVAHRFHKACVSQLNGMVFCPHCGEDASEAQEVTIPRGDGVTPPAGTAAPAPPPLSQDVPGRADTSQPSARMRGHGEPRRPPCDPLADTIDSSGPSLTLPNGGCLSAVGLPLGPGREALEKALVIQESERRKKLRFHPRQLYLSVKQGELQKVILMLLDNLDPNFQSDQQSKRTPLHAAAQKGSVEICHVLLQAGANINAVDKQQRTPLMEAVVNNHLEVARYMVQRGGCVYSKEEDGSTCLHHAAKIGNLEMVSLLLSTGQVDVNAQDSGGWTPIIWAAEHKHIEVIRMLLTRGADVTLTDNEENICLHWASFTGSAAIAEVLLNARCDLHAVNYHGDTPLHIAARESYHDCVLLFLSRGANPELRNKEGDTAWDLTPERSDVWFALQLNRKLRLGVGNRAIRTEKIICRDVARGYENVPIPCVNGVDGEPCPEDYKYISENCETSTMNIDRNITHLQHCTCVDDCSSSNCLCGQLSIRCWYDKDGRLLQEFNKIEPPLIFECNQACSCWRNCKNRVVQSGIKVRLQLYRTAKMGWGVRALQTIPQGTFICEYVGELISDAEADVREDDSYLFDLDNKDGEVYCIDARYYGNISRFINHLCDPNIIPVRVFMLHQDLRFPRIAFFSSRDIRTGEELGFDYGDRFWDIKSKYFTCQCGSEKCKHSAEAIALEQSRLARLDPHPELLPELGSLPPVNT

[2] = target: T2, Histone-lysine N-methyltransferase EHMT2 (Homo sapiens) (UniProt Q96KQ7); experiment: Inhibition of G9a at 1 uM by Thioglo assay
T2 sequence (whole entry): T1 sequence (Q96KQ7 whole entry)

[3] = target: Histamine H1 receptor (Homo sapiens) (UniProt P35367); experiment: Inhibition of histamine H1 receptor at 1 uM
[4] = target: T3, Muscarinic acetylcholine receptor M2 (Homo sapiens) (UniProt P08172); experiment: Inhibition of muscarinic M2 receptor at 1 uM
T3 sequence (whole entry): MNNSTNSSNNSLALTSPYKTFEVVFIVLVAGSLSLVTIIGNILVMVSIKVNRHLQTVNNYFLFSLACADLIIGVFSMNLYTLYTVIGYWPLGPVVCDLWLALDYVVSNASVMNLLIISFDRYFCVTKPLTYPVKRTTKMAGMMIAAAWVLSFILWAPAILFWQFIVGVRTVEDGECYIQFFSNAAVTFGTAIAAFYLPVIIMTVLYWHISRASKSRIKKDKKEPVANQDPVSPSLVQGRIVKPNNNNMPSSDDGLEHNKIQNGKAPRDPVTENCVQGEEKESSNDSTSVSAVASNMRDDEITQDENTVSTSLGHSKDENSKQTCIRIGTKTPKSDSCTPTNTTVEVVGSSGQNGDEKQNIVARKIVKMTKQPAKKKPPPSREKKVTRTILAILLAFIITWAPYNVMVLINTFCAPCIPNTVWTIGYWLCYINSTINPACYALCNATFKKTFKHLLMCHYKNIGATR

[5] = target: T1, Histone-lysine N-methyltransferase EHMT2
Description: Inhibition of G9a by Thioglo assay

Sequence of Histamine H1 receptor (Homo sapiens) (P35367 whole entry): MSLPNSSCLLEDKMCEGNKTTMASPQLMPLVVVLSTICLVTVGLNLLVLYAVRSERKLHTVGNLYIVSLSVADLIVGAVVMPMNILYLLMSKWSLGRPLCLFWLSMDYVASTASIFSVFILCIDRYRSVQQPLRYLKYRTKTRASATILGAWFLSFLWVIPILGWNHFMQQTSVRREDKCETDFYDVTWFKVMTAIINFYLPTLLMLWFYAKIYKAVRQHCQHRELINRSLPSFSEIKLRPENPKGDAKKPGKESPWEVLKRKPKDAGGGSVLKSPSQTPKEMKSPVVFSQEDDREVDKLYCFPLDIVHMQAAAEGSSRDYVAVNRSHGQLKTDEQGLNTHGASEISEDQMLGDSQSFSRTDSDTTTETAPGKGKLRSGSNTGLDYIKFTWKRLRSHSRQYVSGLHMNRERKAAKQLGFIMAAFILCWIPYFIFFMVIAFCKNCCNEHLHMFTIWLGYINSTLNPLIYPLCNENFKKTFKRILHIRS

IC50 [1] [µM] | inhibition [2] [%] | inhibition [3] [%] | inhibition [4] [%] | IC50 [5] [µM] | SMILES
5.1 | < 30 | – | – | – | COc1cc2nc(N3CCCN(C)CC3)nc(NC3CC3)c2cc1OC
5.8 | < 30 | – | – | – | COc1cc2nc(N3CCCN(C)CC3)nc(NC(C)C)c2cc1OC
> 10 | < 30 | – | – | – | COc1cc2nc(N3CCCN(C)CC3)nc(NC3CCOCC3)c2cc1OC
– | – | 31 | 82 | – | COc1cc2c(NC3CCN(C)CC3)nc(N3CCCN(C)CC3)nc2cc1OCCCN(C)C
0.51 | – | – | – | 0.55 | COc1cc2nc(N3CCCCC3)nc(NC3CCN(C)CC3)c2cc1OC
9.1 | < 30 | – | – | – | COc1cc2nc(Cl)nc(NC3CCN(C)CC3)c2cc1OC
> 10 | < 30 | – | – | – | COc1cc2nc(N3CCCN(C)CC3)nc(NC3CCNCC3)c2cc1OC
0.81 | – | – | – | 1.6 | COc1cc2nc(N3CCOCC3)nc(NC3CCN(C)CC3)c2cc1OC
